Data set [1] deals with multidrug-resistant K. pneumoniae (MDR). Kind of data set: Bacterial growth inhibition test / MIC calculation. The conditions noted are these: MHB, 37° C., growth curves, linear regression, mean ± s.d. It is filed as cell-based, Klebsiella pneumoniae. The source says:
The bacterial strains methicillin-sensitive Staphylococcus aureus (S. aureus) ATCC 29213, methicillin-resistant Staphylococcus aureus (MRSA) ATCC 43300, Enterococcus faecalis (E. faecalis) ATCC 29212, Escherichia coli (E. coli) ATCC 25922, Acinetobacter baumannii (A. baumannii) 2208 ATCC19606, Pseudomonas aeruginosa (P. aeruginosa) strain PAO1-LAC ATCC 47085, Klebsiella pneumoniae (K. pneumoniae) ATCC 13883 and multidrug-resistant K. pneumoniae (MDR), were obtained from the culture collection of the Oral Health Cooperative Research Centre, The Melbourne Dental School, University of Melbourne, Australia. Bacteria were cultured in Mueller Hinton Broth (MHB) at 37° C. […] The plate was put into an iEMS microplate reader (Pathtech Pty Ltd, Melbourne, Australia) at a temperature of 37° C. to monitor bacterial growth by measuring the absorbance at wavelength of 630 nm for 24 h. Background absorbance values due to the Se NP solutions were subtracted from the measured absorbance values.
The absorbance values from bacteria growth curves at the time when the stationary phase starts (tsps) were taken and calculated as a percentage of the untreated control (Z=OD5/OD6×100%, where OD5 represents absorbance at tsps of experimental groups and OD6 represents the absorbance at tsps of the negative control group; all absorbance values had the culture medium background values subtracted). […]

Another data set deals with E. coli ATCC 25922. Kind of data set: Membrane potential change test (BacLight, DiOC2(3)). The class given is cell-based, Escherichia coli. The conditions noted are these: 6.25 or 12.5 μg/ml (CCCP 5 μM). Here is the method:
(§1) Membrane potential change was measured using a BacLight Bacterial Membrane Potential Kit (Invitrogen). The bacterial strain methicillin-sensitive S. aureus (MSSA) ATCC 29213, E. faecalis ATCC 29212, E. coli ATCC 25922 were cultured in MHB at 37° C. 50 μL of different concentrations of Se NPs, Se NP-ε-PL or pure ε-PL in PBS solution was added into each well of 96-well microplates. 50 μL MHB with 2.5×10^6 cells/mL bacteria was then added into each well. 50 μL MHB with 2.5×10^6 cells/mL bacteria was added to 50 μL PBS to act as untreated control. Carbonyl cyanide 3-chlorophenylhydrazone (CCCP) was added to untreated control at a final concentration of 5 μM to act as fully depolarized control. 3,3′-Diethyloxacarbocyanine Iodide (DiOC2(3)) was added to all wells at a final concentration of […]. […] The untreated (polarized) and CCCP-treated (fully depolarized) controls were used to determine the percentage of depolarized cells. Two independent experiments were done for this test, and two technical replicates were adopted for each independent experiment.

Data set [2] concerns E. faecalis ATCC 29212. Described as above. It is filed as cell-based, Enterococcus faecalis. The conditions noted are these: 6.25 or 12.5 μg/ml. Here is the method: as §1
Data set [3] relates to human dermal fibroblast cells (HDF). As to the kind of experiment: Cell Counting Kit-8 (CCK-8) cytotoxicity assay. The class given is cell-based. The conditions noted are these: all tested concentrations (1-50 μg/mL), 24 h. Here is the method: Two methods were adopted to test the cytotoxicity of Se NP-ε-PL, namely the Cell Counting Kit-8 (CCK-8) assay and Lactate Dehydrogenase (LDH) assay.
Cytotoxicity of Se NPs, Se NP-ε-PL and pure ε-PL was tested using human dermal fibroblast cells (HDF). HDF were cultured in Dulbecco's modified Eagle's medium (DMEM) with 10% foetal bovine serum (FBS), 100 U·mL^−1 penicillin and 100 μg·mL^−1 streptomycin at 37° C. in a humidified atmosphere of 5% CO2. For the CCK-8 tests, filter sterilised Se NPs, Se NP-ε-PL and pure ε-PL in PBS suspensions were diluted in PBS to concentrations of 20, 50, 100, 200, 500 and 1000 μg/mL and 5% (v/v) of these diluted solutions were added to DMEM to give final concentrations of Se NPs of 1, 2.5, 5, 10, 25 and 50 μg/mL The control groups involved DMEM as the negative control and DMEM with 10% dimethyl sulfoxide (DMSO) as the positive control, according to ISO 10993-12 standard. […] 100 μL medium from each well was then transferred to new 96-well plates and the absorbance of each well was tested using a microplate reader (M200 PRO, Tecan) at a wavelength of 450 nm. The cell viability (X) of each experimental group was calculated based on 5 samples according the following formula: […]
where OD1 represents the mean absorbance of experimental groups and the positive control group and OD2 represents the mean absorbance of the negative control group.

Data set [4] has as its system E. faecalis ATCC 29212. Kind of data set: Helium ion microscopy (HIM) of treated bacteria. It is filed as cell-based, Enterococcus faecalis. The conditions noted are these: 90 min incubation. Here is the method:
The morphologies of bacterial strains methicillin-sensitive S. aureus (MSSA) ATCC 29213, E. faecalis ATCC 29212, E. coli ATCC 25922, A. baumannii 2208 ATCC19606 and K. pneumoniae ATCC 13883 after treatment with Se NPs, Se NP-ε-PL or pure ε-PL were observed using Helium Ion Microscopy (HIM, Zeiss, Germany). The samples were prepared in the following steps. First, 100 μL of 125 μg/mL Se NPs, Se NP-ε-PL or pure ε-PL in PBS solution was added to each well of 96-well microplates, 100 μL pure PBS was used as untreated control. Afterwards, 100 μL MHB with 1.25×10^7/mL bacteria was added to each well. After 90 min incubation, 10 μL of both treated and untreated bacteria was dropped on clean silicon wafers, and they were then dried at 37° C. for 20 min. The dried samples were transferred to a 12-well plate, 2.5% glutaraldehyde was added to each well to fix the bacteria cells for 1 h, then gradient ethanol solution (30%, 50%, 60%, 70%, 80%, 90%, 95% and 100%) was used for dehydration. The prepared samples were dried in the fume hood overnight before use.

A word on the MIC: it is the least concentration at which growth counts as inhibited. Consider ε-poly-L-lysine [ε-PL], for which the minimal inhibitory concentration (MIC) in data set [1] is 26.5 ± 0.5 µg/mL. For the same substance, the “depolarisation of cell membrane” value in the data set on E. coli ATCC 25922 and in the data set with E. faecalis ATCC 29212 [2] was “depolarized cell membranes” each time. The “toxicity to HDF cells (cell viability, CCK-8)” value in data set [3] was “no significant toxicity”. Besides, the “cell morphology after treatment (HIM)” value in the data set on E. faecalis ATCC 29212 [4] is “some were dead and distorted”.

The values above are taken from US20220339187A1, “ANTIMICROBIAL PEPTIDE-SELENIUM NANOPARTICLES” (The University of Melbourne, priority 2019, published 2022).
